Data taken from US8697658B2, “Glycoside compounds” (National Health Research Institutes, priority 2011, dated 2014).

Assays:
[1] = test system: Streptozotocin-induced diabetes rats; assay: In vivo anti-hyperglycemia assay; set-up: species or system rat; conditions: streptozotocin-induced diabetic rats, single oral dose, blood glucose at 0-5 hr, various dosages
Procedure: Streptozotocin-induced diabetes rats were used for assessment of blood glucose lowering effect. Adult male Sprague Dawley rats were obtained from BioLasco, Ilan, Taiwan. The rats received an intraperitoneal injection of streptozotocin (Sigma, Cat. No. S0130, St. Louis, Mo., USA) at a concentration of 65 mg/kg every other day. The streptozotocin solution was freshly prepared in 0.01 M citrate buffer. Blood samples were collected via tail vein with a 25 G needle once a week and were tested using a blood glucometer (ACCU-CHEK® from Roche, Basel, Schweiz) for glucose level. A glucose level of higher than 450 mg/dL indicates streptozotocin-induced diabetes. The diabetic rats were divided into 3-6 groups and were orally administered with a single dose of the tested compounds, dapagliflozin (reference compound), or vehicle. Blood samples were collected via tail vein at 0 (pre-dose), 0.5, 1, 2, 3, 4, and 5 hr after the oral administration and were measured for blood glucose levels with the glucometer. A P value of less than 0.05 was considered statistically significant.

[2] = test system: Male Sprague-Dawley rats; assay: In vivo urine glucose excretion assay; set-up: species or system rat; conditions: single oral dose 0.1, 1, 10, and 50 mg/kg, then 50% glucose solution 2 g/kg orally, 24-hour urine collection
Procedure: Male Sprague-Dawley rats were used for glucosuria assessment. Male Sprague-Dawley rats of 8-10 weeks old were obtained from BioLasco, Ilan, Taiwan. The rats to be tested were fasted overnight and divided into 6 weight-matched groups. The rats were mildly anesthetized with a mixed gas of 30% O2 and 70% CO2 by inhalation and were orally gavaged with a single dose of the tested compounds (0.1, 1, 10, and 50 mg/kg), dapagliflozin (reference compound, 1 mg/kg), or vehicle. Each of the tested rats was subsequently dosed orally with 50% glucose solution (2 g/kg). The rats were returned to metabolism cages (ISHIHALA, Tokyo, Japan) for 24-hour urine collection and were re-fed at 1 h after the glucose challenge. Volume of the urine was measured and recorded. The urine samples were measured for glucose levels by a DRI-CHEM 3500 analyzer (FUJI, Tokyo, Japan). A P value of less than 0.05 was considered statistically significant.

Row | Structure (SMILES) | anti-hyperglycemia effect (blood glucose lowering) [1] | effect in increasing urinary glucose excretion [2]
1 | CCOc1ccc(Cc2cc([C@@H]3O[C@H](C=NO)[C@@H](O)[C@H](O)[C@H]3O)ccc2Cl)cc1 [Compound 70] | strong anti-hyperglycemia effect | strong effect in increasing urinary glucose excretion in a dose-dependent manner
2 | CCOc1ccc(Cc2cc([C@@H]3O[C@H](C=NOC)[C@@H](O)[C@H](O)[C@H]3O)ccc2Cl)cc1 [Compound 71] | – | strong effect in increasing urinary glucose excretion in a dose-dependent manner
3 | CCOc1ccc(Cc2cc([C@@H]3O[C@H](C=NNCCO)[C@@H](O)[C@H](O)[C@H]3O)ccc2Cl)cc1 [Compound 78] | strong anti-hyperglycemia effect | strong effect in increasing urinary glucose excretion in a dose-dependent manner
4 | CCOc1ccc(Cc2cc([C@@H]3O[C@H](CNOC)[C@@H](O)[C@H](O)[C@H]3O)ccc2Cl)cc1 [Compound 79] | – | strong effect in increasing urinary glucose excretion in a dose-dependent manner
5 | CCOc1ccc(Cc2cc([C@@H]3O[C@H](C=NNC(=O)c4cccs4)[C@@H](O)[C@H](O)[C@H]3O)ccc2Cl)cc1 [Compound 81] | – | strong effect in increasing urinary glucose excretion in a dose-dependent manner
6 | CCOc1ccc(Cc2cc([C@@H]3O[C@H](C=NNC(=S)NC)[C@@H](O)[C@H](O)[C@H]3O)ccc2Cl)cc1 [Compound 87] | strong anti-hyperglycemia effect | strong effect in increasing urinary glucose excretion in a dose-dependent manner
7 | CCOc1ccc(Cc2cc([C@@H]3O[C@H](C=NNC(=O)c4ccccc4)[C@@H](O)[C@H](O)[C@H]3O)ccc2Cl)cc1 [Compound 93] | strong anti-hyperglycemia effect | strong effect in increasing urinary glucose excretion in a dose-dependent manner
8 | CCOc1ccc(Cc2cc([C@@H]3O[C@H](C=NNC(=O)c4ccc(Cl)s4)[C@@H](O)[C@H](O)[C@H]3O)ccc2Cl)cc1 [Compound 95] | strong anti-hyperglycemia effect | strong effect in increasing urinary glucose excretion in a dose-dependent manner
9 | O[C@@H]1[C@@H](O)[C@H](c2cn(Cc3ccc(C4CC4)cc3)c3c(F)cccc23)OC[C@H]1O [Compound 108] | strong anti-hyperglycemia effect | –
